Among the data in patent publication US7507727B2, “Substituted quinobenzoxazine analogs and methods of using thereof” (Cylene Pharmaceuticals, Inc., priority 2003, dated 2009) are IC50 values, retold here.

Each structure is given as a SMILES string.

One assay has as its target c-Myc template DNA (c-myc quadruplex). Nature of the assay: Quadruplex binding / stop assay (Taq polymerase arrest, capillary electrophoresis). The conditions noted are these: read-out: S DATA; Table 1D, stop assay data.
With `CN(C)CCCCNC(=O)c1cn2c3c(c(NCCN4CCOCC4)ccc3c1=O)Oc1cc3ccccc3cc1-2` [compound 1550], the IC50 was over 15 µM.
For the compound `C[C@H](O)CNc1c(F)cc2c(=O)c(C(=O)NCCC3CCCN3C)cn3c2c1Oc1cc2ccccc2cc1-3` (some centres unmarked) [compound 1683], the IC50 was found to be 1.75 µM.
As for `NC1CCN(c2c(F)cc3c(=O)c(C(=O)NCCCN4CCCC4=O)cn4c3c2Oc2cc3ccccc3cc2-4)C1` (centres unmarked) [compound 1694], the IC50 is over 15 µM.
As to `CN1CCCC1CCNC(=O)c1cn2c3c(c(NCC4CC(C)(C)N(O)C4(C)C)c(F)cc3c1=O)Oc1cc3ccccc3cc1-2` (centres unmarked) [compound 1668], the IC50 is 0.375 µM.
`COc1ccc(OC)c(CCNc2c(F)cc3c(=O)c(C(=O)NCCC4CCCN4C)cn4c3c2Oc2cc3ccccc3cc2-4)c1` (centres unmarked) [compound 1672]: the IC50 turned out to be 1.75 µM.
`CN1CCCC1CCNC(=O)c1cn2c3c(c(NCCCCN4CCCC4)c(F)cc3c1=O)Oc1cc3ccccc3cc1-2` (centres unmarked) [compound 1504]: the IC50 came to 0.75 µM.
In the case of `CN1CCCC1CCNC(=O)c1cn2c3c(c(NC[C@H]4CCCO4)c(F)cc3c1=O)Oc1cc3ccccc3cc1-2` (some centres unmarked) [compound 1735], the IC50 amounted to 2.5 µM.
With `COc1cccc(CCNc2c(F)cc3c(=O)c(C(=O)NCCC4CCCN4C)cn4c3c2Oc2cc3ccccc3cc2-4)c1OC` (centres unmarked) [compound 1673], the IC50 was 2.5 µM.
Same read-out and setting: under `CCOC(=O)N1CCC(Nc2c(F)cc3c(=O)c(C(=O)NCCC4CCCN4C)cn4c3c2Oc2cc3ccccc3cc2-4)CC1` (centres unmarked) [compound 1485] stands 1.75 µM.
As to `CCN(CC)C(=O)C1CCCN(c2c(F)cc3c(=O)c(C(=O)NCCC4CCCN4C)cn4c3c2Oc2cc3ccccc3cc2-4)C1` (centres unmarked) [compound 1479], the IC50 turned out to be 1.75 µM.
With `CC(C)(C)OC(=O)NC1CCN(C(=O)c2cn3c4c(c(NCCN5CCOCC5)c(F)cc4c2=O)Oc2ccccc2-3)C1` (centres unmarked) [compound 1607], the IC50 is over 15 µM.
Turning to `CC(C)N1CCN(c2c(F)cc3c(=O)c(C(=O)NCCN4CCOCC4)cn4c3c2Oc2ccccc2-4)CC1` [compound 1562], the IC50 is over 15 µM.
As to `NC1CCN(c2c(F)cc3c(=O)c(C(=O)NCC4CCCO4)cn4c3c2Oc2cc3ccccc3cc2-4)C1` (centres unmarked) [compound 1693], the IC50 is over 15 µM.
As to `CN(C)CC(C)(C)CNC(=O)c1cn2c3c(c(N4CCC(N)C4)c(F)cc3c1=O)Oc1ccccc1-2` (centres unmarked) [compound 1625], the IC50 was over 15 µM.
`CN1CCC[C@H]1CCNC(=O)c1cn2c3c(c(SCCc4cnccn4)c(F)cc3c1=O)Oc1cc3ccccc3cc1-2` [compound 1770]: the IC50 is 4.7 µM.
Still for that read-out and setting: to `CN1CCCC1CCNC(=O)c1cn2c3c(c(N4CCC(c5cnccn5)C4)c(F)cc3c1=O)Oc1cc(Cl)ccc1-2` (centres unmarked) [compound 1765] belongs 3.6 µM; to `CN1CCCC1CCNC(=O)c1cn2c3c(c(NCC4CCNC4)c(F)cc3c1=O)Oc1cc3ccccc3cc1-2` (centres unmarked) [compound 1617], 0.375 µM.
In the case of `CN1CCCC1CCNC(=O)c1cn2c3c(c(N4CCC(NC(=O)OC(C)(C)C)CC4)c(F)cc3c1=O)Oc1cc3ccccc3cc1-2` (centres unmarked) [compound 1498], the IC50 came out at 1.75 µM.
As for `CC(C)N1CCN(c2c(F)cc3c(=O)c(C(=O)NCCN4CCCC4)cn4c3c2Oc2ccc(C#N)cc2-4)CC1` [compound 1796], the IC50 was over 15 µM.
For `CC1(C)CC(NC(=O)c2cn3c4c(c(NCCCN5CCOCC5)ccc4c2=O)Oc2cc4ccccc4cc2-3)CC(C)(C)N1` [compound 1531], the IC50 was over 15 µM.
Still for that read-out and setting: to `O=C(NCCN1CCCC1)c1cn2c3c(c(N4CCN(Cc5ccoc5)CC4)c(F)cc3c1=O)Oc1cc(Cl)ccc1-2` [compound 1832] belongs 10 µM; to `N=C(N)NCCCNC(=O)c1cn2c3c(c(NCCN4CCCC4)c(F)cc3c1=O)Oc1cc3ccccc3cc1-2` [compound 1654], 1 µM.
Regarding `CC1(C)CC(NC(=O)c2cn3c4c(c(NCCN5CCOCC5)c(F)cc4c2=O)Oc2ccccc2-3)CC(C)(C)N1` [compound 1615], the IC50 was over 15 µM.
On the same count and under the same terms, under `CN(C)c1ccccc1CNC(=O)c1cn2c3c(c(N4CCC(N)C4)c(F)cc3c1=O)Oc1cc3ccccc3cc1-2` (centres unmarked) [compound 1715] stands over 15 µM; under `CN1CCCC1CCNC(=O)c1cn2c3c(c(N4CCC(N5CCCCC5)CC4)c(F)cc3c1=O)Oc1cc3ccccc3cc1-2` (centres unmarked) [compound 1483], 1.75 µM.
On the same count and under the same terms, to `O=C(NCCN1CCOCC1)c1cn2c3c(c(NCCN4CCCC4)ccc3c1=O)Oc1cc3ccccc3cc1-2` [compound 1521] belongs 1.75 µM; to `CC1CCCC(C)N1CCCNC(=O)c1cn2c3c(c(N4CCC(N)C4)c(F)cc3c1=O)Oc1cc3ccccc3cc1-2` (centres unmarked) [compound 1713], 0.75 µM; to `CC(C)(C)OC(=O)NC1CCN(c2c(F)cc3c(=O)c(C(=O)NCCCCN)cn4c3c2Oc2ccccc2-4)C1` (centres unmarked) [compound 1589], over 15 µM.
In the case of `CN1CCCC1CCNC(=O)c1cn2c3c(c(NCCCn4ccnc4)c(F)cc3c1=O)Oc1cc3ccccc3cc1-2` (centres unmarked) [compound 1670], the IC50 stood at 1 µM.
Regarding `CN1CCCC1CCNC(=O)c1cn2c3c(c(N4CCC(N)C4)c(F)cc3c1=O)Oc1ccccc1-2` (centres unmarked) [compound 1623], the IC50 was over 15 µM.
`CC(CNc1c(F)cc2c(=O)c(C(=O)NCCC3CCCN3C)cn3c2c1Oc1cc2ccccc2cc1-3)Oc1ccccn1` (centres unmarked) [compound 1750]: the IC50 is 9.7 µM.
With `CN1CCCC1CCNC(=O)c1cn2c3c(c(NCC4CCN(C(=O)OC(C)(C)C)C4)c(F)cc3c1=O)Oc1cc3ccccc3cc1-2` (centres unmarked) [compound 1506], the IC50 came to 0.75 µM.

The same assay, now with this note: read-out: Stop Data c-Myc μM; concentration at which 50% of the DNA was arrested (arrested:full-length 1:1).
`CC1CCCC(C)N1CCCNC(=O)c1cn2c3c(c(N4CCC(N)C4)c(F)cc3c1=O)Oc1cc3ccccc3cc1-2` (centres unmarked) [compound 465]: the IC50 was found to be 0.75 µM.
On to `O=C(CNCCN1CCCC1)N[C@@H]1CCN(c2c(F)cc3c(=O)c(C(=O)N4CCOCC4)cn4c3c2Oc2cc3c(cc2-4)oc2ccccc23)C1` [compound 180], for which the IC50 amounted to 1.75 µM.
With `CN1CCN(CCCNC(=O)c2cn3c4cc5c(=O)c6ccccc6c(=O)c5cc4oc4c(NCCC5CCCN5C)c(F)cc(c2=O)c43)CC1` (centres unmarked) [compound 165], the IC50 was found to be 1.75 µM.
With `CCCCN1CCC(CNC(=O)c2cn3c4c(c(N5CCC(N)C5)c(F)cc4c2=O)Oc2cc4ccccc4cc2-3)CC1` (centres unmarked) [compound 302], the IC50 came out at 1.75 µM.
As to `NC1CCN(c2c(F)cc3c(=O)c(C(=O)NCCCCN4CCCC4)cn4c3c2Oc2cc3ccccc3cc2-4)C1` (centres unmarked) [compound 431], the IC50 worked out at 0.75 µM.
On to `CN(C)CCCCNC(=O)c1cn2c3c(c(NCCN4CCCC4)c(F)cc3c1=O)Oc1cc3c(cc1-2)oc1ccccc13` [compound 161], for which the IC50 came to 1.75 µM.
For `CN(C)CCCCNc1c(F)cc2c(=O)c(C(=O)N3CC[C@H](NC(=O)OC(C)(C)C)C3)cn3c4cc5c(cc4oc1c23)c(=O)c1ccccc15` [compound 207], the IC50 was determined as 1.75 µM.
On to `CN(C)CCCCNC(=O)c1cn2c3c(c(NCCCN4CCN(C)CC4)ccc3c1=O)Oc1cc3ccccc3cc1-2` [compound 456], for which the IC50 amounted to 0.75 µM.
Consider `CC(C)(C)OC(=O)NC1CCN(c2c(F)c(N)c3c(=O)c(C(=O)NCCCN4CCOCC4)cn4c3c2Oc2cc3ccccc3cc2-4)C1` (centres unmarked) [compound 226], for which the IC50 came out at 1.75 µM.
Take `CN1CCC[C@@H]1CCNC(=O)c1cn2c3c(c(N4CCC(c5cnccn5)C4)c(F)cc3c1=O)Oc1cc3ccccc3cc1-2` (some centres unmarked) [compound 468]: the IC50 came out at 0.74 µM.
Take `CC(=O)N[C@@H]1CCN(c2c(F)cc3c(=O)c(C(=O)NCCCN4CCN(C)CC4)cn4c3c2Oc2cc3c(cc2-4)oc2ccccc23)C1` [compound 179]: the IC50 was 1.75 µM.
The same measure, in the same setting: under `CN(C)CCCCNC(=O)c1cn2c3c(c(N4CC[C@@H](NC(=O)CCNCCN5CCOCC5)C4)c(F)cc3c1=O)Oc1cc3c(cc1-2)oc1ccccc13` [compound 405] stands 0.75 µM; under `CN1CCCC1CCNc1ccc2c(=O)c(C(=O)NCCCN3CCOCC3)cn3c2c1Oc1cc2ccccc2cc1-3` (centres unmarked) [compound 269], 1.75 µM.
As to `CN1CCCC1CCNC(=O)c1cn2c3cc4oc5cc([N+](=O)[O-])ccc5[nH]c4cc3oc3c(NCCN4CCOCC4)c(F)cc(c1=O)c32` (centres unmarked) [compound 407], the IC50 was 0.75 µM.
For `CN1CCC[C@H]1CCNC(=O)c1cn2c3c(c(N4CCC(c5cnccn5)C4)c(F)cc3c1=O)Oc1cc3ccccc3cc1-2` (some centres unmarked) [compound 339], the IC50 amounted to 0.94 µM.
For the compound `O=C(NCCN1CCOCC1)c1cn2c3cc4c(cc3oc3c(NCCCN5CCOCC5)c(F)cc(c1=O)c32)c(=O)c1ccccc14` [compound 425], the IC50 was 0.75 µM.
Take `CN(C)CCCCNCCC(=O)N[C@@H]1CCN(c2c(F)cc3c(=O)c(C(=O)N4CCOCC4)cn4c3c2Oc2cc3c(cc2-4)oc2ccccc23)C1` [compound 177]: the IC50 was found to be 1.75 µM.
`CC(C)(C)OC(=O)NC1CCN(c2c(F)cc3c(=O)c(C(=O)NCCCCN4CCCC4)cn4c3c2Oc2cc3ccccc3cc2-4)C1` (centres unmarked) [compound 323]: the IC50 stood at 1 µM.
On the same count and under the same terms, to `CN1CCCC1CCNc1c(F)cc2c(=O)c(C(=O)NCCCn3ccnc3)cn3c2c1Oc1c-3ccc2ccccc12` (centres unmarked) [compound 135] belongs 1.75 µM.
For the compound `O=C(NCCN1CCOCC1)c1cn2c3cc4c(cc3oc3c(NCCN5CCCC5)c(F)cc(c1=O)c32)c(=O)c1ccccc14` [compound 424], the IC50 amounted to 0.75 µM.
As to `O=C(NCCN1CCOCC1)c1cn2c3c(c(NCCCN4CCOCC4)c(F)cc3c1=O)Oc1cc3ccccc3cc1-2` [compound 48], the IC50 was 2.5 µM.
As for `O=C(NCCCN1CCOCC1)c1cn2c3c(c(NCCCN4CCOCC4)c(F)cc3c1=O)Oc1ccccc1-2` [compound 47], the IC50 was found to be 2.5 µM.
For `CN1CCCC1CCNc1ccc2c(=O)c(C(=O)NCCN3CCCC3)cn3c2c1Oc1cc2ccccc2cc1-3` (centres unmarked) [compound 448], the IC50 amounted to 0.75 µM.
As for `CN1CCCC1CCNC(=O)c1cn2c3c(c(NCCCCO)c(F)cc3c1=O)Oc1cc3ccccc3cc1-2` (centres unmarked) [compound 284], the IC50 amounted to 1.75 µM.
The same measure, in the same setting: to `O=C(c1cn2c3c(c(NC4CCNC4)c(F)cc3c1=O)Oc1cc3ccccc3cc1-2)N1CCOCC1` (centres unmarked) [compound 116] belongs 1.75 µM.
In the case of `NC1CCN(c2c(F)cc3c(=O)c(C(=O)N4CCCCC4CN4CCCC4)cn4c3c2Oc2cc3ccccc3cc2-4)C1` (centres unmarked) [compound 249], the IC50 was determined as 1.75 µM.
`CN1CCCC1CCNC(=O)c1cn2c3c(c(NCCC4CCCN4C)ccc3c1=O)Oc1cc3ccccc3cc1-2` (centres unmarked) [compound 449]: the IC50 came to 0.75 µM.
